Measured values as given in PMC12439480, “Dimeric CCK2R radiotheranostic tracers synergize with mTOR inhibition for enhanced tumor therapy” (Theranostics, 2025).
Numbered stars: 1 amine (or outer) side, 2 acyl side, 3 side chain; on linkers, the order of the positions; unused ones are H or OH. Square brackets hold non-standard residues; d marks the D form. Side chains are listed from the residue outwards. Peptide text beside a SMILES is read from it. * marks the point of attachment. DOTA = O=C(O)CN1CCN(CC(=O)O)CCN(CC(=O)*)CCN(CC(=O)O)CC1; d(γGlu) = O=C(O)[C@@H](CCC(=O)[*:2])N[*:1]; 1Nal = N[C@@H](Cc1cccc2ccccc12)C(=O)O; NMeNle = CCCC[C@H](NC)C(=O)O; PEG4 = NCCOCCOCCOCCOCCC(=O)O

Tests used:
[1] = system: AR42J tumor-bearing mice; assay: In vivo therapeutic study (tumor volume, survival, body weight); design: species or system BALB/c nude mice
Source text: When the tumor volume reached approximately 100 mm^3, the AR42J tumor-bearing mice were randomly divided into four treatment groups (n = 8/group).
Tumor volumes and body weights were monitored every two days. The following humane endpoints were established as follows: tumor volume exceeding 1500 mm^3, weight loss greater than 15%, or observable signs of pain or distress. Mice meeting one of these criteria were euthanized.

[2] = system: AR42J tumor-bearing mice; assay: Toxicity studies (blood count, blood biochemistry, histopathology)
Method: On day 12 post-treatment, the tumor tissues were processed and subjected to scRNA-seq and immunohistochemical (IHC) analysis (see Supplementary Methods, Section S4). […] Toxicity studies were conducted when the mice reached one of the predefined endpoints (Supplementary Methods, Section S6). […]
Section S6: Toxicity Studies
Blood samples were collected retro-orbitally using a glass capillary tube when mice reached one of the predefined endpoints. The samples were then centrifuged at 6,000 rpm for 10 minutes (Centrifuge 5417R, Eppendorf SE, Enfield, CT, USA), and the supernatant was transferred into a preventive care profile plus rotor for analysis of RBC, WBC, PLT, ALT, AST, ALP, BUN, and CREA. Sample analysis was performed

[3] = system: GSTK1; assay: Western blot of GSTK1 expression; assay type: cell-based, rat; conditions: cultured AR42J cells, 24 h
Method: pathway analysis, and Reactome pathway analysis. GO enrichment analysis was conducted using clusterProfiler (v4.0.5). KEGG pathway enrichment was analyzed using clusterProfiler, focusing on pathways relevant to radiotherapy- related detoxification, including glutathione metabolism and cytochrome P450- mediated metabolism of xenobiotics. Reactome pathway analysis was performed using […]
to radiosensitivity regulation. […]
protease and phosphatase inhibitors. Total protein (20 μ g per sample) was separated […]
ABclonal, Cat. No. A5226). After three washes with TBST, membranes were […]
temperature. Protein bands were visualized using an enhanced chemiluminescence detection system (CLINX, ChemiScope 6200).
Section S6: Toxicity Studies […]
mice reached one of the predefined endpoints. The samples were then centrifuged at […]
RBC, WBC, PLT, ALT, AST, ALP, BUN, and CREA. Sample analysis was performed

[4] = design: species or system KM mice; conditions: mouse, in vivo, iv
Method: To evaluate the clearance rates of [^68Ga]Ga-DOTA-CCK2R-dimer and [^68Ga]Ga-DOTA-CCK-66 from the blood, a pharmacokinetic study was conducted in male KM mice (4-6 weeks old, 18-20 g, n = 5/group). Each mouse received 3.7 MBq of radiotracer via tail vein injection, corresponding to approximately 120 pmol of [^68Ga]Ga-DOTA-CCK2R-dimer or 210 pmol of [^68Ga]Ga-DOTA-CCK-66. Blood samples were collected from the tail vein into preweighed capillary tubes at 1, 3, 5, 10, 15, 30, 60, 90, 120, and 150 min post-injection. The radioactivity of the blood samples was measured using a γ-counter, and the percent of injected dose per gram of tissue (%ID/g) was calculated. Additionally, we assessed the in vivo stability of [^177Lu]Lu-DOTA-CCK2R-dimer. Mice were intravenously injected with 7.4 MBq (≈ 240 pmol) of [^177Lu]Lu-DOTA-CCK2R-dimer (dissolved in 200 μL of saline; n = 3/group). Urine samples were collected at 1, 4, and 24 hours post-injection, then diluted, filtered through a 0.22 μm membrane, and analyzed by radio-HPLC.
All animal studies were approved by the Ethics Committee of Fudan University […]
Shanghai Cancer Center (No. FUSCC-IACUC- S2023- 0003). […]
Pharmacokinetics in Normal Mice
F or the pharmacokinetics study, […] male KM mice (4 - 6 weeks old, weighing 18 - 20 g) were administered either [68Ga]Ga-D O TA -CCK2R-dimer or [68Ga]Ga-D O TA -CCK- 66 (3.7 MBq per mouse, n = 5/group) via tail vein injection.
Blood samples were collected from the tail vein using pre-weighed capillary tubes at […]
(§1) Radioactivity levels were measured using a gamma counter, with decay correction applied based on the injection time. The percentage of injected dose per gram of tissue (%ID/g) was calculated for each time point. […]

[5] = system: AR42J tumor-bearing mice; assay: in vivo; design: species or system BALB/c nude mice; conditions: mouse, 1 h
Method: To complement the imaging studies, biodistribution experiments were performed. AR42J tumor-bearing mice were intravenously injected with 3.7 MBq of [^68Ga]Ga-DOTA-CCK2R-dimer (≈ 120 pmol) or [^68Ga]Ga-DOTA-CCK-66 (≈ 210 pmol) (dissolved in 200 μL of saline; n = 3/group). The mice were sacrificed at 30, 60, and 120 min post-injection, and the tissues of interest were excised, weighed, and analyzed for radioactivity using a γ-counter. For blocking studies, a 400-fold excess of the lead compound was co-administered, and the mice were sacrificed at 1 h post-injection.
All animal studies were approved by the Ethics Committee of Fudan University
Shanghai Cancer Center (No. FUSCC-IACUC- S2023- 0003). Five-week-old female
BALB/c nude mice were purchased from Shanghai SLAC Laboratory Animal
Company. To establish cell-derived xenograft (CDX) models, 1 × 10⁶ AR42J cells
(100 μL) were subcutaneously inoculated into the right shoulder of each mouse. […]

[6] = design: species or system mice; conditions: mouse, in vivo, 24 h
Method: In vitro stability was evaluated by incubating ~37 kBq of each radiotracer in PBS or human serum at 37 °C (n = 3). […] To further assess the in vivo stability of [^177Lu]Lu-DOTA-CCK2R-dimer, mice (n = 3) were intravenously injected with 3.7 MBq of the radiotracer in 200 μL of saline. […] The radioactivity of the blood samples was measured using a γ-counter, and the percent of injected dose per gram of tissue (%ID/g) was calculated. Additionally, we assessed the in vivo stability of [^177Lu]Lu-DOTA-CCK2R-dimer. Mice were intravenously injected with 7.4 MBq (≈ 240 pmol) of [^177Lu]Lu-DOTA-CCK2R-dimer (dissolved in 200 μL of saline; n = 3/group).

[7] = system: AR42J tumor-bearing mice; assay: Ex vivo biodistribution of 177Lu-labeled compound; design: species or system BALB/c nude mice; conditions: mouse, in vivo
Method: To evaluate the biodistribution of [^177Lu]Lu-DOTA-CCK2R-dimer, AR42J tumor-bearing mice received intravenous (i.v.) injections of 3.7 MBq (≈ 120 pmol) of [^177Lu]Lu-DOTA-CCK2R-dimer (dissolved in 200 μL of saline; n = 3/group), and Mice were sacrificed at 1, 4, 24, 48, 72, and 96 h post-injection. The tissues of interest were excised, weighed, and analyzed for radioactivity using a γ-counter.
All animal studies were approved by the Ethics Committee of Fudan University Shanghai Cancer Center (No. FUSCC-IACUC- S2023- 0003). Five-week-old female BALB/c nude mice were purchased from Shanghai SLAC Laboratory Animal
Company. To establish cell-derived xenograft (CDX) models, 1 × 10⁶ AR42J cells (100 μL) were subcutaneously inoculated into the right shoulder of each mouse. […]
as §1

[8] = post-treatment blood biochemistry

`CO[C@H]1C[C@@H]2CC[C@@H](C)[C@@](O)(O2)C(=O)C(=O)N2CCCC[C@H]2C(=O)O[C@H]([C@H](C)C[C@@H]2CC[C@@H](OCCO)[C@H](OC)C2)CC(=O)[C@H](C)/C=C(\C)[C@@H](O)[C@@H](OC)C(=O)[C@H](C)C[C@H](C)/C=C/C=C/C=C/1C` [RAD001, everolimus, reference compound] gave a median survival time ([1]; Kaplan-Meier) of 32 days, an average tumor volume ([1]; day 10) of 197.63 ± 40.92 mm³ and a GRA ([2]; post-treatment CBC) of 23.97 ± 4.05%. For the same molecule, the “GRA#” value ([2]; post-treatment CBC) was 0.19 ± 0.05 109/L, the HCT ([2]; post-treatment CBC) was 25.73 ± 1.05% and the HGB ([2]; post-treatment CBC) was 178.57 ± 3.40 g/L. For the same molecule, the LYM ([2]; post-treatment CBC) was 53.9 ± 5.47%, the “LYM#” value ([2]; post-treatment CBC) was 0.41 ± 0.03 109/L and the MCH ([2]; post-treatment CBC) was 35.33 ± 0.87 pg. It also gave an MCHC ([2]; post-treatment CBC) of 693.67 ± 15.95 g/L, an MCV ([2]; post-treatment CBC) of 51.03 ± 0.57 fL and an MON ([2]; post-treatment CBC) of 22.13 ± 2.32%. For the same molecule, the “MON#” value ([2]; post-treatment CBC) was 0.17 ± 0.05 109/L, the MPV ([2]; post-treatment CBC) was 13.8 ± 0.35 fL and the P-LCR ([2]; post-treatment CBC) was 45.87 ± 1.03%. For the same molecule, the PCT ([2]; post-treatment CBC) was 0.12 ± 0.01%, the PDW ([2]; post-treatment CBC) was 32.9 ± 0.3 fL and the PLT ([2]; post-treatment CBC) was 104.33 ± 2.52 109/L. For the same molecule, the RBC ([2]; post-treatment CBC) was 5.05 ± 0.22 1012/L, the RDWCV ([2]; post-treatment CBC) was 11.23 ± 0.15% and the RDWSD ([2]; post-treatment CBC) was 23.33 ± 1.10 fL. The WBC ([2]; post-treatment CBC) was 7.67 ± 1.15 109/L, the ALP [2, 8] was 150.68 ± 32.99 U/L and the ALT [2, 8] was 43.73 ± 11.08 U/L. For the same molecule, the AST [2, 8] was 109.76 ± 13.94 U/L, the UA [2, 8] was 140.92 ± 41.88 µmol/L and the UREA [2, 8] was 3.49 ± 1.30 mmol/L. The “GSTK1 expression (Western blot)” value [3] was “lower in the mTOR group than in the Veh group”.

Work on `CCCC[C@@H](C(=O)N[C@@H](CC(=O)O)C(=O)N[C@@H](Cc1cccc2ccccc12)C(N)=O)N(C)C(=O)[C@H](Cc1c[nH]c2ccccc12)NC(=O)CCOCCOCCOCCOCCNC(=O)CC[C@@H](NC(=O)CC[C@H](NC(=O)CN1CCN(CC(=O)O)CCN(CC(=O)O)CCN(CC(=O)O)CC1)C(=O)N[C@H](CCC(=O)NCCOCCOCCOCCOCCC(=O)N[C@@H](Cc1c[nH]c2ccccc12)C(=O)N(C)[C@@H](CCCC)C(=O)N[C@@H](CC(=O)O)C(=O)N[C@@H](Cc1cccc2ccccc12)C(N)=O)C(=O)O)C(=O)O` [[68Ga]Ga-DOTA-CCK2R-dimer] [metal not drawn] ({DOTA}-E([d(γGlu)-PEG4-Trp-NMeNle-Asp-1Nal-NH2])[d(γGlu)][PEG4]W[NMeNle]D[1Nal]-NH2) yielded a t1/2α [4] of 37.8 s, a Bladder uptake [5] of 0.99 ± 0.77 %ID/g and a Heart uptake [5] of 0.2 ± 0.15 %ID/g. The Kidney uptake [5] was 12.32 ± 8.97 %ID/g and the Liver uptake [5] was 3.88 ± 2.47 %ID/g.

In the case of `CCCC[C@@H](C(=O)N[C@@H](CC(=O)O)C(=O)N[C@@H](Cc1cccc2ccccc12)C(N)=O)N(C)C(=O)[C@H](Cc1c[nH]c2ccccc12)NC(=O)CCOCCOCCOCCOCCNC(=O)CC[C@@H](NC(=O)CC[C@H](NC(=O)CN1CCN(CC(=O)O)CCN(CC(=O)O)CCN(CC(=O)O)CC1)C(=O)N[C@H](CCC(=O)NCCOCCOCCOCCOCCC(=O)N[C@@H](Cc1c[nH]c2ccccc12)C(=O)N(C)[C@@H](CCCC)C(=O)N[C@@H](CC(=O)O)C(=O)N[C@@H](Cc1cccc2ccccc12)C(N)=O)C(=O)O)C(=O)O` [[177Lu]Lu-DOTA-CCK2R-dimer] [metal not drawn] ({DOTA}-E([d(γGlu)-PEG4-Trp-NMeNle-Asp-1Nal-NH2])[d(γGlu)][PEG4]W[NMeNle]D[1Nal]-NH2), the “compound remaining intact in urine (radiochemical purity)” value [6] is reported as “more than 96%”, the “Tumor-to-Muscle ratio (T/M)” value [7] is reported as 90.85 and the ALP ([2]; mouse, in vivo) is reported as 135.99 ± 24.61 U/L. The ALT ([2]; mouse, in vivo) was 44.93 ± 6.41 U/L, the AST ([2]; mouse, in vivo) was 87.94 ± 5.64 U/L and the GRA ([2]; mouse, in vivo) was 28.7 ± 8.16%. The “GRA#” value ([2]; mouse, in vivo) was 0.20 ± 0.07 109/L, the HCT ([2]; mouse, in vivo) was 19.2 ± 5.20% and the HGB ([2]; mouse, in vivo) was 151.67 ± 19.64 g/L. For the same molecule, the LYM ([2]; mouse, in vivo) was 52.27 ± 2.74%, the “LYM#” value ([2]; mouse, in vivo) was 0.38 ± 0.14 109/L and the MCH ([2]; mouse, in vivo) was 41.83 ± 6.37 pg. For the same molecule, the MCHC ([2]; mouse, in vivo) was 714 ± 42.04 g/L, the MCV ([2]; mouse, in vivo) was 51.63 ± 0.81 fL and the MON ([2]; mouse, in vivo) was 19.03 ± 9.18%. For the same molecule, the “MON#” value ([2]; mouse, in vivo) was 0.15 ± 0.13 109/L, the P-LCR ([2]; mouse, in vivo) was 35.87 ± 5.49% and the PCT ([2]; mouse, in vivo) was 0.16 ± 0.04%. For the same molecule, the PDW ([2]; mouse, in vivo) was 28.67 ± 2.04 fL, the PLT ([2]; mouse, in vivo) was 116 ± 13.08 109/L and the RBC ([2]; mouse, in vivo) was 4.72 ± 0.81 1012/L. For the same molecule, the RDWCV ([2]; mouse, in vivo) was 10.77 ± 0.40%, the RDWSD ([2]; mouse, in vivo) was 22.33 ± 1.15 fL and the UA ([2]; mouse, in vivo) was 126.33 ± 13.85 µmol/L. For the same molecule, the UREA ([2]; mouse, in vivo) was 3.25 ± 0.56 mmol/L, the WBC ([2]; mouse, in vivo) was 7.0 ± 2.65 109/L and the MPV ([2]; post-treatment CBC) was 12.2 ± 0.61 fL.
